This assay concerns mouse MC3T3 E1 osteoblast cultures. Kind of assay: Cell adhesion test on RGD-peptide-coated titanium surfaces. It counts as cell-based. The following applies: 50,000 cells/cm^2 seeded, one hour in serum-free medium at 37° C.; FIG. 2; compared with JAU311003, all concentrations measured. As for the experimental part: Ti or TiAl6V4 moldings having a diameter of 10 mm and a height of 1-2 mm are cleaned.
The moldings are transferred into 48-well plates (Costar, “non-tissue culture treated” Art. No. 3574). For bonding of the bioactive, cell adhesion-promoting molecules B (where B can be a cyclopeptide, peptide mimetic or linear peptide) to the prepared moldings, stock solutions containing B molecules (“B solutions”) are prepared in a final concentration of 1 mM in an aqueous buffer. Concentration series with the “B solution” final concentrations of 1 nM, 10 nM, 100 nM, 1 μM, 10 μM and 100 μM in each case are subsequently prepared by dilution with buffer. The moldings are covered with 250 μl of the respective B solutions in each case and subsequently incubated at room temperature for 18-24 hours. For removal of unbound B molecules, the samples are washed three times with buffer and stored in buffer overnight. […]
The adhesion of mouse MC3T3 E1 osteoblast cultures to RGD-peptide-coated titanium surfaces in vitro was investigated. 50,000 cells/cm^2 were seeded, and the proportion of adhered cells was determined after incubation for one hour in serum-free medium at 37° C./95% atmospheric humidity. • Cell adhesion rate [%]=adhered cells/seeded cells×100 • Peptide: cell adhesion rate [%] • The results can be found in the figures.

As to “cyclo(Arg-Gly-Asp-D-Phe-Lys(^εNH—[CO—(CH2)5—NH]3—(CO—C6H3(CH2PO3H2)2)) [CD 135]”, the Cell adhesion rate entry was “higher cell adhesion rate for all concentrations measured”.

The record behind these values is patent US20050261169A1, “Peptide and peptide mimetic derivatives having integrin inhibitor properties III” (priority 2003, published 2005).
